Source: PubChem BioAssay AID1389 (Sanford-Burnham Center for Chemical Genomics, 2008)
Calls of active or inactive are those of the source.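 How the source made its calls: active means no visible ATF-4 stress protein band on the western blot after compound pretreatment and chemical ER stress; inactive means the rest.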

Tested on: CSM14.1 cells, thapsigargin-induced ATF-4 Western blot
Test: blockers of ATF-4 protein induction, late-stage follow-up, mechanism study for ER stress cell death inhibitors, CSM14.1 cells, thapsigargin, Western blot (AID 1389)

COc1ccc(C2CC(=O)C3=C(C2)Nc2ccccc2NC3c2cccc(Oc3ccccc3)c2)cc1OC (stereo unspecified)
outcome: inactive

COc1ccc(C2CC(=O)C3=C(C2)Nc2ccccc2NC3c2cc(C)ccc2C)cc1 (stereo unspecified)
outcome: active

CSc1ccc(C2Nc3ccccc3NC3=C2C(=O)CC(c2ccccc2)C3)cc1 (stereo unspecified)
outcome: inactive

CCOc1cccc(C2Nc3ccccc3NC3=C2C(=O)CC(c2ccc(OC)cc2)C3)c1 (stereo unspecified)
outcome: inactive

COc1ccc(C2CC(=O)C3=C(C2)Nc2ccccc2NC3c2cccc(C(F)(F)F)c2)cc1OC (stereo unspecified)
outcome: inactive

COc1ccc(C2CC(=O)C3=C(C2)Nc2ccccc2NC3c2cccc(Br)c2)cc1OC (stereo unspecified)
outcome: inactive

O=C1CC(c2ccccc2)CC2=C1C(c1c(F)cccc1Cl)Nc1ccccc1N2 (stereo unspecified)
outcome: inactive

CCOc1cc(C2Nc3ccccc3NC3=C2C(=O)CC(c2ccc(OC)cc2)C3)cc(Cl)c1O (stereo unspecified)
outcome: inactive

CCCOc1ccc(C2Nc3ccccc3NC3=C2C(=O)CC(c2ccc(OC)c(OC)c2)C3)cc1 (stereo unspecified)
outcome: active

COc1ccc(C2CC(=O)C3=C(C2)Nc2ccccc2NC3c2ccccc2C(F)(F)F)cc1OC (stereo unspecified)
outcome: inactive

CC1(C)CC(=O)C2=C(C1)Nc1ccccc1NC2c1ccc(-c2ccccc2)cc1 (stereo unspecified)
outcome: inactive
